# According to PubChem BioAssay (NCI):
#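 Each compound was tested at five concentrations against cells in 96-well plates for 48 hours. GI50 = concentration required for 50% inhibition of growth. TGI is the concentration that stops growth completely.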
# Columns and labels:
# Test in all cases: DTP human tumour cell line panel, 48 h
# OVCAR-8 ovarian = test system: OVCAR-8 ovarian
# SK-OV-3 ovarian = test system: SK-OV-3 ovarian
# OVCAR-4 ovarian = test system: OVCAR-4 ovarian
# UACC-62 melanoma = test system: UACC-62 melanoma
# SK-MEL-5 melanoma = test system: SK-MEL-5 melanoma
# 786-0 renal = test system: 786-0 renal
# SN12C renal = test system: SN12C renal
# KM12 colon = test system: KM12 colon
# UO-31 renal = test system: UO-31 renal
# SF-539 CNS = test system: SF-539 CNS
# CCRF-CEM leukemia = test system: CCRF-CEM leukemia
# HOP-18 NSCLC = test system: HOP-18 NSCLC
# SK-MEL-28 melanoma = test system: SK-MEL-28 melanoma
# U251 CNS = test system: U251 CNS
# RPMI-8226 leukemia = test system: RPMI-8226 leukemia
# OVCAR-5 ovarian = test system: OVCAR-5 ovarian
# NCI-H23 lung = test system: NCI-H23 lung
# NCI-H226 lung = test system: NCI-H226 lung
# A549 NSCLC = test system: A549 NSCLC
# LOX IMVI melanoma = test system: LOX IMVI melanoma
# MOLT-4 leukemia = test system: MOLT-4 leukemia
# SF-295 CNS = test system: SF-295 CNS
# EKVX NSCLC = test system: EKVX NSCLC
# DMS 114 small cell lung = test system: DMS 114 small cell lung
# IGROV1 ovarian = test system: IGROV1 ovarian
# K-562 leukemia = test system: K-562 leukemia
# HCC-2998 colon = test system: HCC-2998 colon
# M19-MEL melanoma = test system: M19-MEL melanoma
# COLO 205 colon = test system: COLO 205 colon
# OVCAR-3 ovarian = test system: OVCAR-3 ovarian
# HCT-15 colon = test system: HCT-15 colon
# XF 498 CNS = test system: XF 498 CNS
# RXF 393 renal = test system: RXF 393 renal
# TK-10 renal = test system: TK-10 renal
# SK-MEL-2 melanoma = test system: SK-MEL-2 melanoma
# UACC-257 melanoma = test system: UACC-257 melanoma
# HOP-62 NSCLC = test system: HOP-62 NSCLC
# M14 melanoma = test system: M14 melanoma
# HCT-116 colon = test system: HCT-116 colon
# HL-60(TB) leukemia = test system: HL-60(TB) leukemia
# MALME-3M melanoma = test system: MALME-3M melanoma
# KM20L2 colon = test system: KM20L2 colon
# NCI-H460 lung = test system: NCI-H460 lung
# SW-620 colon = test system: SW-620 colon
# DLD-1 colon = test system: DLD-1 colon
# LXFL 529 NSCLC = test system: LXFL 529 NSCLC
# SF-268 CNS = test system: SF-268 CNS
# CAKI-1 renal = test system: CAKI-1 renal
# SNB-19 CNS = test system: SNB-19 CNS
# HOP-92 NSCLC = test system: HOP-92 NSCLC
# HT29 colon = test system: HT29 colon
# ACHN renal = test system: ACHN renal
# SR leukemia = test system: SR leukemia
# SNB-78 CNS = test system: SNB-78 CNS
# NCI-H522 lung = test system: NCI-H522 lung
# DMS 273 small cell lung = test system: DMS 273 small cell lung
# A498 renal = test system: A498 renal
# SNB-75 CNS = test system: SNB-75 CNS
structure (smiles),measurement,setting,value
CC(C)(C)C(=O)[CH-]C(=O)C(F)(F)C(F)(F)C(F)(F)F.CC(C)(C)C(=O)[CH-]C(=O)C(F)(F)C(F)(F)C(F)(F)F.[O-]CC1OC(O)C(O)C(O)C1O.[O-]CC1OC(O)C(O)C(O)C1O.[Ti+4],TGI,OVCAR-8 ovarian,> 100 µM
same,TGI,SK-OV-3 ovarian,> 100 µM
same,TGI,OVCAR-4 ovarian,> 100 µM
same,TGI,UACC-62 melanoma,> 100 µM
same,TGI,SK-MEL-5 melanoma,> 100 µM
same,TGI,786-0 renal,> 100 µM
same,TGI,SN12C renal,> 100 µM
same,TGI,KM12 colon,> 100 µM
same,TGI,UO-31 renal,> 100 µM
same,TGI,SF-539 CNS,> 100 µM
same,TGI,CCRF-CEM leukemia,> 100 µM
same,GI50,HOP-18 NSCLC,> 100 µM
same,TGI,HOP-18 NSCLC,> 100 µM
same,TGI,SK-MEL-28 melanoma,> 100 µM
same,TGI,U251 CNS,> 100 µM
same,TGI,RPMI-8226 leukemia,> 100 µM
same,TGI,OVCAR-5 ovarian,> 100 µM
same,TGI,NCI-H23 lung,> 100 µM
same,TGI,NCI-H226 lung,> 100 µM
same,TGI,A549 NSCLC,> 100 µM
same,TGI,LOX IMVI melanoma,> 100 µM
same,TGI,MOLT-4 leukemia,> 100 µM
same,TGI,SF-295 CNS,> 100 µM
same,TGI,EKVX NSCLC,> 100 µM
same,GI50,DMS 114 small cell lung,> 100 µM
same,TGI,DMS 114 small cell lung,> 100 µM
same,TGI,IGROV1 ovarian,> 100 µM
same,TGI,K-562 leukemia,> 100 µM
same,GI50,HCC-2998 colon,> 100 µM
same,TGI,HCC-2998 colon,> 100 µM
same,GI50,M19-MEL melanoma,> 100 µM
same,TGI,M19-MEL melanoma,> 100 µM
same,TGI,COLO 205 colon,> 100 µM
same,TGI,OVCAR-3 ovarian,> 100 µM
same,TGI,HCT-15 colon,> 100 µM
same,GI50,XF 498 CNS,> 100 µM
same,TGI,XF 498 CNS,> 100 µM
same,TGI,RXF 393 renal,> 100 µM
same,TGI,TK-10 renal,> 100 µM
same,TGI,SK-MEL-2 melanoma,> 100 µM
same,TGI,UACC-257 melanoma,> 100 µM
same,TGI,HOP-62 NSCLC,> 100 µM
same,TGI,M14 melanoma,> 100 µM
same,TGI,HCT-116 colon,> 100 µM
same,TGI,HL-60(TB) leukemia,> 100 µM
same,TGI,MALME-3M melanoma,> 100 µM
same,GI50,KM20L2 colon,> 100 µM
same,TGI,KM20L2 colon,> 100 µM
same,TGI,NCI-H460 lung,> 100 µM
same,TGI,SW-620 colon,> 100 µM
same,GI50,DLD-1 colon,67.4 µM
same,TGI,DLD-1 colon,> 100 µM
same,GI50,LXFL 529 NSCLC,71.4 µM
same,TGI,LXFL 529 NSCLC,> 100 µM
same,TGI,SF-268 CNS,> 100 µM
same,TGI,CAKI-1 renal,> 100 µM
same,TGI,SNB-19 CNS,> 100 µM
same,TGI,HOP-92 NSCLC,96.9 µM
same,TGI,HT29 colon,> 100 µM
same,TGI,ACHN renal,> 100 µM
same,TGI,SR leukemia,> 100 µM
Cc1cc(=O)[nH]c(CNC(=O)Cc2ccccc2)n1,TGI,OVCAR-8 ovarian,> 100 µM
same,TGI,SK-OV-3 ovarian,> 100 µM
same,TGI,OVCAR-4 ovarian,> 100 µM
same,TGI,UACC-62 melanoma,> 100 µM
same,TGI,786-0 renal,> 100 µM
same,TGI,SN12C renal,> 100 µM
same,TGI,SNB-78 CNS,> 100 µM
same,TGI,KM12 colon,> 100 µM
same,TGI,UO-31 renal,> 100 µM
same,TGI,SF-539 CNS,> 100 µM
same,TGI,CCRF-CEM leukemia,> 100 µM
same,TGI,NCI-H522 lung,> 100 µM
same,TGI,SK-MEL-28 melanoma,> 100 µM
same,TGI,DMS 273 small cell lung,> 100 µM
same,TGI,RPMI-8226 leukemia,> 100 µM
same,TGI,OVCAR-5 ovarian,> 100 µM
same,TGI,NCI-H23 lung,> 100 µM
same,TGI,NCI-H226 lung,> 100 µM
same,TGI,A549 NSCLC,> 100 µM
same,TGI,LOX IMVI melanoma,> 100 µM
same,TGI,MOLT-4 leukemia,> 100 µM
same,TGI,SF-295 CNS,> 100 µM
same,TGI,EKVX NSCLC,> 100 µM
same,TGI,DMS 114 small cell lung,> 100 µM
same,TGI,IGROV1 ovarian,> 100 µM
same,TGI,K-562 leukemia,> 100 µM
same,TGI,A498 renal,> 100 µM
same,TGI,HCC-2998 colon,> 100 µM
same,TGI,M19-MEL melanoma,> 100 µM
same,TGI,COLO 205 colon,> 100 µM
same,TGI,OVCAR-3 ovarian,> 100 µM
same,TGI,HCT-15 colon,> 100 µM
same,TGI,SNB-75 CNS,> 100 µM
same,TGI,XF 498 CNS,> 100 µM
same,TGI,RXF 393 renal,> 100 µM
same,TGI,TK-10 renal,> 100 µM
same,TGI,SK-MEL-2 melanoma,> 100 µM
same,TGI,UACC-257 melanoma,> 100 µM
same,TGI,HOP-62 NSCLC,> 100 µM
same,TGI,M14 melanoma,> 100 µM
same,TGI,HL-60(TB) leukemia,> 100 µM
same,TGI,MALME-3M melanoma,> 100 µM
same,TGI,KM20L2 colon,> 100 µM
same,TGI,NCI-H460 lung,> 100 µM
same,TGI,SW-620 colon,> 100 µM
same,TGI,DLD-1 colon,> 100 µM
same,TGI,LXFL 529 NSCLC,> 100 µM
same,TGI,SF-268 CNS,> 100 µM
same,TGI,CAKI-1 renal,> 100 µM
same,TGI,SNB-19 CNS,> 100 µM
same,TGI,HOP-92 NSCLC,> 100 µM
same,TGI,HT29 colon,> 100 µM
same,TGI,ACHN renal,> 100 µM
